Laboratory results: patent US20020068367A1, “Linker and method for solid phase combinatorial synthesis” (priority 2000, published 2002)
Where “and” joins values, the source holds several entries; their conditions need not be identical. Equal values may be shown once.

Target: T1, fluorescein-streptavidin (Streptomyces avidinii, UniProt P22629)
T1 construct: purchased Calbiochem-Novabiochem Corp., La Jolla, Calif; 189734
Experiment: Fluorescence emission standard curve, streptavidin-fluorescein (evaluation of linker 3)
Conditions: for Fluorescence emission (standard curve): replicates
Text: FIG. 8 is a plot of data from Table 8, derived from evaluation of linker 3;

T1 sequence (P22629 25-183): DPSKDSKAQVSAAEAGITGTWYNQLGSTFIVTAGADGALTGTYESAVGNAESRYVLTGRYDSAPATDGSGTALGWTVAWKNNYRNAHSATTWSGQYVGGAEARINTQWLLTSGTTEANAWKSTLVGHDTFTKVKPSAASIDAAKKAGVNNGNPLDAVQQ

With `O=C(CCCCCNC(=O)CCCCCNC(=O)CCCCC1SCC2NC(=O)NC21)NCCCCCNC(=O)CCCCCNC(=O)CCCCC1SCC2NC(=O)NC21` (stereo not shown) [Linker 3] the “Fluorescence emission (standard curve), mean of Columns 1-3” value ([ST/FL] 7.4 pmol) was 150.37, the “Fluorescence emission (standard curve), sum of Columns 1-2” value (from here on “Fluorescence emission … of Columns 1-2”) ([ST/FL] 7.4 pmol) was 283.8 and the “Fluorescence emission (standard curve), sum of Columns 1-3” value ([ST/FL] 7.4 pmol) was 451.1. For the same compound, the “Fluorescence emission (standard curve)” value ([ST/FL] 7.4 pmol) was 112.81 and 170.99 and 167.3, the “Fluorescence emission (standard curve), mean of Columns 1-3” value ([ST/FL] 11.0 pmol) was 245.76 and the “Fluorescence emission … of Columns 1-2” value ([ST/FL] 11.0 pmol) was 498.27. The “Fluorescence emission (standard curve), sum of Columns 1-3” value ([ST/FL] 11.0 pmol) was 737.28, the “Fluorescence emission (standard curve)” value ([ST/FL] 11.0 pmol) was 270.54 and 227.73 and 239.01 and the “Fluorescence emission (standard curve), mean of Columns 1-3” value ([ST/FL] 15.0 pmol) was 281.62. For the same compound, the “Fluorescence emission … of Columns 1-2” value ([ST/FL] 15.0 pmol) was 566.42, the “Fluorescence emission (standard curve), sum of Columns 1-3” value ([ST/FL] 15.0 pmol) was 844.85 and the “Fluorescence emission (standard curve)” value ([ST/FL] 15.0 pmol) was 307.82 and 258.6 and 278.43. The “Fluorescence emission (standard curve), mean of Columns 1-3” value ([ST/FL] 18.0 pmol) was 311.00, the “Fluorescence emission … of Columns 1-2” value ([ST/FL] 18.0 pmol) was 633.01 and the “Fluorescence emission (standard curve), sum of Columns 1-3” value ([ST/FL] 18.0 pmol) was 933.0. For the same compound, the “Fluorescence emission (standard curve)” value ([ST/FL] 18.0 pmol) was 361.66 and 271.35 and 299.99, the “Fluorescence emission (standard curve), mean of Columns 1-3” value ([ST/FL] 22.0 pmol) was 350.48 and the “Fluorescence emission … of Columns 1-2” value ([ST/FL] 22.0 pmol) was 723.72. The “Fluorescence emission (standard curve), sum of Columns 1-3” value ([ST/FL] 22.0 pmol) was 1051.4, the “Fluorescence emission (standard curve)” value ([ST/FL] 22.0 pmol) was 363.91 and 359.81 and 327.71 and the “Fluorescence emission (standard curve), mean of Columns 1-3” value ([ST/FL] 26.0 pmol) was 461.85. The “Fluorescence emission … of Columns 1-2” value ([ST/FL] 26.0 pmol) was 944.08, the “Fluorescence emission (standard curve), sum of Columns 1-3” value ([ST/FL] 26.0 pmol) was 1385.6 and the “Fluorescence emission (standard curve)” value ([ST/FL] 26.0 pmol) was 496.71 and 447.37 and 441.48. The “Fluorescence emission (standard curve), mean of Columns 1-3” value ([ST/FL] 29.0 pmol) was 472.31, the “Fluorescence emission … of Columns 1-2” value ([ST/FL] 29.0 pmol) was 1001.7 and the “Fluorescence emission (standard curve), sum of Columns 1-3” value ([ST/FL] 29.0 pmol) was 1416.9. For the same compound, the “Fluorescence emission (standard curve)” value ([ST/FL] 29.0 pmol) was 495.93 and 505.81 and 415.18, the “Fluorescence emission (standard curve), mean of Columns 1-3” value ([ST/FL] 36.0 pmol) was 567.49 and the “Fluorescence emission … of Columns 1-2” value ([ST/FL] 36.0 pmol) was 1141.1. The “Fluorescence emission (standard curve), sum of Columns 1-3” value ([ST/FL] 36.0 pmol) was 1702.5, the “Fluorescence emission (standard curve)” value ([ST/FL] 36.0 pmol) was 569.16 and 571.94 and 561.36 and the “Fluorescence emission (standard curve), mean of Columns 1-3” value ([ST/FL] 45.0 pmol) was 697.34. The “Fluorescence emission … of Columns 1-2” value ([ST/FL] 45.0 pmol) was 1374.6, the “Fluorescence emission (standard curve), sum of Columns 1-3” value ([ST/FL] 45.0 pmol) was 2092.0 and the “Fluorescence emission (standard curve)” value ([ST/FL] 45.0 pmol) was 688.65 and 685.98 and 717.4. For the same compound, the “Fluorescence emission (standard curve), mean of Columns 1-3” value ([ST/FL] 60.0 pmol) was 847.26, the “Fluorescence emission … of Columns 1-2” value ([ST/FL] 60.0 pmol) was 1651.9 and the “Fluorescence emission (standard curve), sum of Columns 1-3” value ([ST/FL] 60.0 pmol) was 2541.8. For the same compound, the “Fluorescence emission (standard curve)” value ([ST/FL] 60.0 pmol) was 837.57 and 816.34 and 889.88.
